# Results taken from ChEMBL document CHEMBL1201862, “PubChem BioAssay data set” (2004).
# Active and inactive are the calls of the source.
# What was measured:
# [1] = test system: BJ; experiment: BJ-TERT fibroblast viability loss – cell-based, RAS-independent, luminescence, dose response (AID 1933); format: functional; settings: Homo sapiens
# [2] = test system: BJ; experiment: cells; format: functional, cell-based; settings: Homo sapiens
# [3] = molecular target: Luciferin 4-monooxygenase (Photinus pyralis, UniProt P08659); experiment: inhibition of purified Photinus pyralis luciferase – biochemical, luminescence, dose response (AID 1891)
# [4] = Luminescence Cell-Based Dose Confirmation HTS to Identify Inhibitors of Platelet Dense Granule Release. [Related pubchem assays: 1663 (Primary HTS), 1678 (Summary of Project)]; format: functional
# [5] = test system: BJ; experiment: BJ-TERT-LT-ST fibroblast viability loss – cell-based, RAS-independent, luminescence, dose response (AID 1935); format: functional; settings: Homo sapiens;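 note: BJ fibroblasts immortalized with TERT plus LT and ST oncogenes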
# [6] = DRD fibroblast viability loss – cell-based, non-viral oncogenic, luminescence, dose response (AID 1934); format: functional; settings: Homo sapiens
# [7] = test system: Jurkat; experiment: blockers of NF-kB activation in T cells – Jurkat, luciferase reporter, luminescence, B- and T-cell, dose response (AID 489004); format: functional, cell-based; settings: Homo sapiens;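 note: NF-kB luciferase reporter Jurkat cells stimulated with PMA plus ionomycin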
# [8] = HEK-293T viability loss, compound-treated – cell-based, uHTS hits, cytotoxicity control for B/T-cell NF-kB inhibitor project, dose response (AID 489019); format: functional;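 note: IC50 reflects cytotoxicity as loss of cell viability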
# [9] = test system: BJ; experiment: growth inhibition of engineered Ras-driven BJ cells – cell-based, alamar blue fluorescence, cherrypicked samples, dose response (AID 2631); format: functional; settings: Homo sapiens;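 note: confirmatory dose-response assay in RAS-dependent BJ fibroblasts engineered with TERT, LT and ST, with cytotoxicity read by fluorescence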
# [10] = reduction of Shn3 3'UTR-driven luciferase in osteoblasts – cell-based, Clone20 osteoblasts, firefly luciferase, cherry-picked, dose response (AID 624132); format: functional;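 note: firefly luciferase luminescence from reporter carrying the Shn3 3'UTR in osteoblasts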
# [11] = loss of viability in HepG2 cells – cell-based, CellTiter-Glo, cherry-picked, cytotoxicity control for Shn3 inhibitor project, dose response (AID 624134); format: functional
# [12] = blockers of HIV-1 envelope-mediated cell-cell fusion – cherry-pick, dose response (AID 652057); format: functional, cell-based
# [13] = viability loss in CEM21 cells – cell-based, CellTiter-Glo luminescence, cherry-picked, cytotoxicity control for viral fusion inhibitor project, dose response (AID 652042); format: functional;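 note: potency for signal decrease meaning cytotoxicity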
# [14] = blockers of HIV-1 ZM109 envelope-driven cell-cell fusion – HeLa effector, CEM target cells, luciferase, cherry-pick, dose response (AID 652058); format: functional, cell-based;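 note: luciferase signal from HIV-1 Env mediated cell-cell fusion of effector and target cells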
# [15] = off-target signal loss in HeLa-CEM21 co-culture – HeLa F-luc CTL cells, cherry-picked, counter-screen for HIV-1 Env fusion inhibitor project, dose response (AID 652040); format: functional, cell-based;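 note: potency for signal decrease marking cytotoxic or nonspecific inhibition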
# [16] = HIV-1 AD8 envelope cell-cell fusion blockers – cherry-pick, dose response (AID 652062); format: functional, cell-based;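 note: luciferase signal from cell-cell fusion driven by HIV-1 clade B AD8 Env; potency is for inhibitors of fusion seen as a drop in luminescence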
# [17] = A549 cell cytotoxicity, dose response, cytotoxicity control, plate reader, cherry-pick, antagonist series (AID 743412); format: functional, cell-based
# [18] = toxicity toward HepG2 liver cells – cell-based, plate reader, cherry-pick, antagonist series, cytotoxicity control, dose response (AID 743416); format: functional
# [19] = blockers of bursicon-stimulated LGR2 cAMP reporter – cell-based, HEK293, CRE-luciferase reporter, cherry pick, set 2, dose response (AID 743343); format: functional;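 note: transfected cells were stimulated with diluted bursicon conditioned medium after compound addition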
# [20] = blockade of melanocortin 4 receptor signaling – cell-based, plate reader, cherry pick, counter-screen for LGR2 antagonist project, dose response (AID 743444); format: functional;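 note: transfected HEK 293 cells stimulated with alpha-MSH peptide; potency of inhibitors of the alpha-MSH evoked signal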
# [21] = viability loss in HEK293 cells – cell-based, plate reader, cherry-picked samples, cytotoxicity control, dose response (AID 743446); format: functional
# [22] = molecular target: T1, Mitochondrial peptide methionine sulfoxide reductase (Bos taurus, UniProt P54149); experiment: Absorbance-based biochemical high throughput dose response assay for activators of Methionine sulfoxide reductase A (MsrA).; format: functional
# T1 sequence (P54149 whole entry): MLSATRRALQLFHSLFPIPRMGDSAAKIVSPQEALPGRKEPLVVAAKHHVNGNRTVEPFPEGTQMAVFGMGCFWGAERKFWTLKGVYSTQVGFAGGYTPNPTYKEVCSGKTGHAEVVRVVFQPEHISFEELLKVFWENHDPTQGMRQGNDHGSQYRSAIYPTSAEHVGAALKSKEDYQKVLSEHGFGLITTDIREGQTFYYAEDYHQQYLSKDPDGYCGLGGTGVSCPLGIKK
# [23] = test system: H9c2; experiment: cells; format: functional, cell-based; settings: Rattus norvegicus, H9c2, Myocardium;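 note: confirmatory concentration-response retest of ultra-high-throughput screening hits for modulation of myocardial damage; cell death induced by hydrogen peroxide oxidative stress; compound pretreatment for 60 min then peroxide exposure for 2 h; potency is for protecting the cells against peroxide damage rather than for killing them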
# [24] = molecular target: Melanocortin receptor 4 (Homo sapiens, UniProt P32245); format: functional, cell-based;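 note: Cell-based assay with luminescence read-out, confirmatory dose-response testing for agonist activity of biased ligands at MC4R; human U2OS cells with tagged receptor and beta-arrestin; potency of agonists that increase receptor coupling to beta-arrestin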
# Melanocortin receptor 4, sequence (P32245 whole entry): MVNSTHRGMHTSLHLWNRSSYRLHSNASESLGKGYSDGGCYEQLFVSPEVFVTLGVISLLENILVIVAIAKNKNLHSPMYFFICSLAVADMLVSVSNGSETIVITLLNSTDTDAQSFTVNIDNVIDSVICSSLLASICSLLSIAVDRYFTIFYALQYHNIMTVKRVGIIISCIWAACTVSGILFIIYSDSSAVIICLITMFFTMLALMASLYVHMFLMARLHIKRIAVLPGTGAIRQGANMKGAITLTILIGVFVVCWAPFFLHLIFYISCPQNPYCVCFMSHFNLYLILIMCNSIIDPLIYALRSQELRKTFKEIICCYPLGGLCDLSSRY
# Luciferin 4-monooxygenase, sequence (P08659 whole entry): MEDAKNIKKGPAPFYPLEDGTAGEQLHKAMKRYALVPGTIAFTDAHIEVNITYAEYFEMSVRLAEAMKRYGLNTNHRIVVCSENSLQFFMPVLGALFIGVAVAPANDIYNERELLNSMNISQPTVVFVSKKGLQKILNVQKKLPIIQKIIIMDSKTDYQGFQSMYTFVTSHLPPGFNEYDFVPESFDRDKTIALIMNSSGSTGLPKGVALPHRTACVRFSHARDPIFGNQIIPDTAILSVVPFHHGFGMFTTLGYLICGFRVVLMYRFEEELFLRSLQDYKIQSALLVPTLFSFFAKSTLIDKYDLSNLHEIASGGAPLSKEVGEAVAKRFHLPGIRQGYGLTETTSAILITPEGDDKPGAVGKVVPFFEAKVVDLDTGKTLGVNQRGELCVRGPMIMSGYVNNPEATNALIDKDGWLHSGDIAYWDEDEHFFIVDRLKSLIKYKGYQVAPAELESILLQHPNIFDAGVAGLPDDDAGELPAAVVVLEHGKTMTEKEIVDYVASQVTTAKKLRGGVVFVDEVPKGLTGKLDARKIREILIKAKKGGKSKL
compound,measurement,setting,value
COc1ccc(-c2cc3nc(C)n(N)c(=O)c3s2)cc1,EC50,[1],3.64 µM (inconclusive)
same,EC50,[2],2.27 µM (active)
same,EC50,[3],0.263 µM (active)
same,EC50,[4],0.443 µM (active)
same,EC50,[5],10.6 µM (active)
same,EC50,[6],2.15 µM (active)
same,IC50,[7],0.47 µM (active)
same,IC50,[8],> 80 µM (inactive)
same,EC50,[9],> 133 µM (inactive)
same,AC50,[10],1.13 µM (active)
same,AC50,[11],4.71 µM (active)
same,AC50,[12],0.95 µM (active)
same,AC50,[13],4.71 µM (active)
same,AC50,[14],8.99 µM (active)
same,AC50,[15],2.33 µM (active)
same,AC50,[16],1.51 µM (active)
same,AC50,[17],3.1 µM (active)
same,AC50,[18],3.72 µM (active)
same,AC50,[19],0.26 µM (active)
same,AC50,[20],0.289 µM (active)
same,AC50,[21],3.01 µM (active)
Cc1nc2c(nc1C)C(=O)c1ccccc1C2=O,EC50,[22],95.6 µM (inactive)
COc1cccc(-c2cnc3c(NC=O)cc(-c4cccc(C(=O)N(C)C)c4)cn23)c1,IC50,[23],> 79 µM (inactive)
same,EC50,[24],> 89.2 µM (inactive)
COc1cccc(-c2cnc3c(NC(C)=O)cc(-c4cc(F)ccc4OC)cn23)c1,EC50,[24],> 89.2 µM (inactive)
COc1ccccc1-c1cc(NC=O)c2ncc(-c3ccc(F)cc3)n2c1,EC50,[24],> 9.91 µM (active)
